Results published in patent US10919879B2, “Synthesis and novel salt forms of (R)-5-((E)-2-pyrrolidin-3-ylvinyl)pyrimidine” (Oyster Point Pharma, Inc., priority 2008, dated 2021).

Columns and labels:
α4β2 nicotinic subtype = α4β2 nicotinic subtype (Homo sapiens, UniProt P17787+P43681); details: α4β2 over α7, ganglionic and muscle subtypes; background statement, no test described; cited from earlier work
[1] = Stability of the free base; type: physicochemical; details: free base form, viscous oil
[2] = Water solubility of the free base; type: physicochemical; details: free base form, viscous oil
Protocol: Aqueous solubility was determined by suspending sufficient compound in water to give a maximum final concentration of ≥10 mg/mL of the parent free-form of the compound. The suspension was equilibrated at 25° C. for 24 h, and then the pH was measured. The suspension was then filtered through a glass fiber C filter into a 96 well plate. The filtrate was then diluted by a factor of 101. Quantitation was by HPLC with reference to a standard solution of approximately 0.1 mg/mL in DMSO. Different volumes of the standard, diluted and undiluted sample solutions were injected. The solubility was calculated using the peak areas determined by integration of the peak found at the same retention time as the principal peak in the standard injection. If there was sufficient solid in the filter plate, the XRPD was collected.

α4β2 nicotinic subtype, sequence (P43681 29-627 limits assumed): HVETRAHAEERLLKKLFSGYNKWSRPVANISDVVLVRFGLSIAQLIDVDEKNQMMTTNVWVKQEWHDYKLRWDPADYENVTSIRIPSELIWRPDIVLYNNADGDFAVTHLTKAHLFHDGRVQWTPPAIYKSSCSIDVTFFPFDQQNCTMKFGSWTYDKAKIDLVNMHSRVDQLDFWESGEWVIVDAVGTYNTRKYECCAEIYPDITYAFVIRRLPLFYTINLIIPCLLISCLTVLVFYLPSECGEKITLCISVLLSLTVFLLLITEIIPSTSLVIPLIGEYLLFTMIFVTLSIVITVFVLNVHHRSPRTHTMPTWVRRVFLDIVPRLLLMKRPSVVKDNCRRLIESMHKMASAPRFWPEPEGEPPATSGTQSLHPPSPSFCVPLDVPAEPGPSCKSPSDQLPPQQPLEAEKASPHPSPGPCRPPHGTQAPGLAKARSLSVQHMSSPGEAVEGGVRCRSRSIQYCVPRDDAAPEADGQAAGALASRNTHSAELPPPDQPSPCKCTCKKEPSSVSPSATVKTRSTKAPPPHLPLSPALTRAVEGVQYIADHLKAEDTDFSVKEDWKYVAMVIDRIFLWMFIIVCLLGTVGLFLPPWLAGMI
α4β2 nicotinic subtype, sequence (P17787 26-502): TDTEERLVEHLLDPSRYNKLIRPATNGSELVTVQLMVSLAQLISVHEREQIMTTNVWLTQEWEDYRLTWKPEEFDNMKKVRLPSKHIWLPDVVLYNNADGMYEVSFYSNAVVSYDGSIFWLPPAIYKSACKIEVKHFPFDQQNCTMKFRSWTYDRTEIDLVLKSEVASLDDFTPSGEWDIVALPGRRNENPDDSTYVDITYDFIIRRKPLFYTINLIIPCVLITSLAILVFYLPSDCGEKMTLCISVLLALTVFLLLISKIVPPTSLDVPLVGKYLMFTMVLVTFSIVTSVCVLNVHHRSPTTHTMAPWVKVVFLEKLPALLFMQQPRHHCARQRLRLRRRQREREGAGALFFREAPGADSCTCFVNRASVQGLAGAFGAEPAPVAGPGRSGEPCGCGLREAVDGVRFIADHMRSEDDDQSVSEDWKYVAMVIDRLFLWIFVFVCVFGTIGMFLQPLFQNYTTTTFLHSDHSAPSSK

stability [1]: limited
water solubility [2]: limited
Compound: C(=C\[C@H]1CCNC1)/c1cncnc1 [(R)-5-((E)-2-pyrrolidin-3-ylvinyl)pyrimidine]
NNR agonist selectivity (α4β2 nicotinic subtype): selectivity for the α4β2 nicotinic subtype over other nicotinic subtypes
